Experimental data from paper PMC10943695, “Neutrophil elastase as a versatile cleavage enzyme for activation of αvβ3 integrin-targeted small molecule drug conjugates with different payload classes in the tumor microenvironment” (Frontiers in Pharmacology, 2024).
“Also recorded” adds a separate entry of the source. Where two headings read alike, the source gives them in different places. Where a SMILES comes first, the peptide text is derived from it. [ ]: non-standard residue; d: D form. The star is where a group is joined. Dolaproine = CO[C@@H]([C@@H]1CCCN1)[C@@H](C)C(=O)O; Dil = CC[C@H](C)[C@H](NC)[C@@H](CC(=O)O)OC; X1 = C[C@@H](N*)[C@@H](O)c1ccccc1; NMeV = CN[C@H](C(=O)O)C(C)C

What was measured:
[1] = Intravenous pharmacokinetics in rat; format: in vivo; details: for Plasma concentration of released payload: rat plasma after 0.5 mg/kg i.v. of the parent SMDC (4, 5, 6), LLOQ < 0.0005 µM; for AUC(0-inf) / half-life / clearance / Vd: rat, in vivo, iv; for clearance: read-out: CLp; for Vd: read-out: Vss
Experimental: Pharmacokinetic properties of SMDCs and their respective payloads were characterized in rats. Briefly, male Wistar rats (n = 3) were given a 0.5 mg/kg dose of SMDC formulated in plasma/DMSO (99:1) intravenously (i.v.) via tail vein. Blood was collected at pre-dose, 2, 5, 15, 30, 45, 60 min, 2, 4, 7, 24 h post-dose and then processed to plasma. Plasma was frozen at < −20°C until sample analysis. Plasma samples were analyzed for concentrations of SMDCs and their respective released payloads by LC-MS/MS.
Pharmacokinetics of SMDCs and their respective payloads from in vivo studies were determined using mean concentration-time profiles. All pharmacokinetic parameters were calculated by non-compartmental methods as previously described ([Perrier and Gibaldi, 1982]).

[2] = Caco-2 cell permeability flux assay; format: in vitro ADME; details: human, 37 °C, mean of at least two assays
Experimental: The cell permeability of the payloads released by the SMDCs 5 and 6, namely, compounds 10 and 11 were investigated with an in vitro flux assay using Caco-2 cells ([Troutman and Thakker, 2003]). The compounds were dissolved in HEPES buffer and applied (in triplicates) to the cells either on the apical (A) or basolateral (B) side of the Caco-2 monolayer at a final concentration of 2 μM. Before and after incubation for 2 h at 37 °C, samples were taken from both compartments and analyzed by LC-MS/MS. The apparent permeability coefficient (Papp) was calculated for both the apical to basolateral (A → B) and the basolateral to apical (B → A) direction as described by Schwab et al. ([Schwab et al., 2003]).

HT-29 (human CRC) cells = experiment: In vitro cytotoxicity, MTT assay, in absence or presence of neutrophil elastase; format: cell-based; details: Homo sapiens, HT-29, 72 h exposure
Experimental: (§1) 786-O (human RCC), HT-29 (human CRC), NCI-H292 (human NSCLC), NCI-H69 (human SCLC), MX-1 (human TNBC), and SUM149PT (human IBC) cells were acquired from ATCC and cultured according to the provider’s instructions.
(§2) The in vitro cytotoxicity of the SMDCs in comparison to the respective payloads was tested in a panel of cancer cell lines after a 72 h continuous exposure in presence or absence of 20 nM neutrophil elastase using MTT assays (ATCC). IC50 values were determined as the concentration of compound required for 50% inhibition of cell viability.

[3] = tested on: SUM149PT (human IBC) cells; experiment: as above; format: cell-based; details: Homo sapiens, SUM149PT, 72 h exposure
Experimental: as §1, §2

[4] = tested on: NCI-H292 (human NSCLC) cells; experiment: as above; format: cell-based; details: Homo sapiens, NCI-H292, 72 h exposure
Experimental: as §1, §2

786-O (human RCC) cells = experiment: as above; format: cell-based; details: Homo sapiens, 786-0, 72 h exposure
Experimental: as §1, §2

[5] = target: T1, human neutrophil elastase (Homo sapiens, UniProt P08246); experiment: Human neutrophil elastase cleavability assay; format: biochemical; details: 5 µM SMDC, 20, 40, 60 nM NE, 1 h, 37°C
T1 sequence (P08246 30-267): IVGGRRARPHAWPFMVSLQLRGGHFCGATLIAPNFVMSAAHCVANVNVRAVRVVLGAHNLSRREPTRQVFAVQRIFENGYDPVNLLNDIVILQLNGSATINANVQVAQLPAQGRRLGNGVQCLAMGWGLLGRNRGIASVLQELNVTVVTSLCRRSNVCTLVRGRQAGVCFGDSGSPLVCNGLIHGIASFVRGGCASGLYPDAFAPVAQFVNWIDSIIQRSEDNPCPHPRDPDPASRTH
Experimental: For the NE cleavability assay, the SMDC test compound was added to buffer (150 mM NaCl, 10 mM CaCl2, 0.05% BSA) to a final concentration of 5 µM (0.5% DMSO). The reaction was started by adding different concentrations of human NE (0, 20, 40, 60 nM) to the reaction vials. After incubation for 1 h at 37°C, the enzymatic reaction was stopped by precipitation in 50% ACN. Subsequently, the samples were subjected to HPLC-MS analysis to determine the concentration of test compound and of its metabolite.

MX-1 TNBC xenograft = experiment: In vivo efficacy in MX-1 TNBC xenograft model; details: 20 mg/kg i.v.
Experimental: For in vivo efficacy studies, immunocompromised mice were inoculated subcutaneously with 1x10^6 MX-1 TNBC cells in 50% Matrigel/50% Media on day 0. Treatment was started at a mean tumor volume of 75 mm^3 in the MX-1 model (n = 12/group: Compound 2, 20 mg/kg i. v. in a 2 days on/5 days off and in a once weekly (QW) schedule. VIP236, 20 mg/kg i. v. QW). Tumor and body weight were measured at least twice weekly.

[6] = Stability in human plasma; format: in vitro ADME; details: 37 °C
[7] = Hydrolytic stability in PBS buffer at pH 7.4; format: physicochemical; details: PBS pH 7.4, 37 °C, 24 h
Experimental: For hydrolytic stability measurement, compounds 2, 3, 4, 5 and 6 (0.15 mg) were dissolved in acetonitrile/DMSO (4:1, 0.5 mL) and 1 mL of PBS buffer at pH 7.4 was then added. The sample solution was analyzed by HPLC to determine the amount of the test compound and the formation of degradation products over a period of 24 h at 37 °C.

Stability in rat plasma = format: in vitro ADME; details: 37 °C
Experimental: The SMDC compounds 2, 3, 4, 5 and 6 (1 mg) were dissolved in acetonitrile/DMSO (1:1, 0.5 mL). While vortexing, 20 µL of this solution was added to 1 mL rat plasma at 37 °C. The incubation was stopped at respective time intervals by adding acetonitrile/buffer pH 3 (80:20) and the test compounds and formation of degradation products were analyzed by LC and LC/MS.

[8] = with 20 nM neutrophil elastase, read-out: IC50 HT29 + neutrophil elastase
[9] = without neutrophil elastase, read-out: IC50 HT29
[10] = with 20 nM neutrophil elastase, read-out: IC50 SUM149 PT + neutrophil elastase
[11] = without neutrophil elastase, read-out: IC50 SUM149PT
[12] = with 20 nM neutrophil elastase, read-out: IC50 NCI-H292 + neutrophil elastase
[13] = without neutrophil elastase, read-out: IC50 NCI-H292
[14] = with 20 nM neutrophil elastase, read-out: IC50 786–0 + neutrophil elastase
[15] = without neutrophil elastase, read-out: IC50 786–0
[16] = male Wistar rats, 0.5 mg/kg SMDC i.v., plasma

SMILES | Plasma concentration of released payload [1] | Papp A→B at 2 h, 2 μM [2] [×10⁻⁶ cm/s] | Papp B→A at 2 h, 2 μM [2] [×10⁻⁶ cm/s] | efflux ratio at 2 h, 2 μM [2] | IC50 (HT-29 (human CRC) cells; [8]) [nM] | IC50 (HT-29 (human CRC) cells; [9]) [nM] | IC50 [3, 10] [nM] | IC50 [3, 11] [nM] | IC50 [4, 12] [nM] | IC50 [4, 13] [nM] | IC50 (786-O (human RCC) cells; [14]) [nM] | IC50 (786-O (human RCC) cells; [15]) [nM] | Cleavage by human NE [5] | AUC(0-inf) [1, 16] [µM·h] | half-life [1, 16] [h] | clearance [1, 16] [mL/min/kg] | Vd [1, 16] [L/kg] | Stability in human plasma [6] | Stability in buffer pH 7.4 [7] | Stability in rat plasma (Stability in rat plasma) | also measured
CC(C)(C)[C@H](c1cc(-c2cc(F)ccc2F)cn1Cc1ccccc1)N(CCCN)C(=O)CO [Compound 10, N-(3-aminopropyl)-N-{(1R)-1-[1-benzyl-4-(2,5-difluorophenyl)-1H-pyrrol-2-yl]-2,2-dimethylpropyl}-2-hydroxyacetamide] | largely below the lower limit of quantitation | 0.38 | 18 | 129 | 0.41 | 0.41 | 0.17 | 0.33 | 0.27 | 0.46 | 2.5 | 2.5 | – | – | – | – | – | – | – | – | –
CCCNC(=O)Nc1cccc(S(=O)(=O)Nc2cccc([C@@H](CC(=O)O)NC(=O)Nc3ccc(NC(=O)NCCN(C)CCN(C)CCN(C)CC(=O)N[C@@H](CC(N)=O)C(=O)N4CCC[C@H]4C(=O)N[C@H](C(=O)O[C@]4(CC)C(=O)OCc5c4cc4n(c5=O)Cc5c-4nc4ccccc4c5CC)C(C)C)cc3)c2)c1 [Compound 2] | – | – | – | – | – | – | – | – | – | – | – | – | essentially completely cleaved | 2.52 ± 0.61 | 8.31 ± 5.49 | 2.33 ± 0.44 | 0.627 ± 0.344 | Very small fractions of a degradation product; also recorded: highly stable | Very small fractions of a degradation product; also recorded: highly stable | highly stable | payload/parent AUC ratio ([1]; male Wistar rats, 0.5 mg/kg SMDC i.v., plasma, molar basis): 0.0105; Tumor growth MX-1 (MX-1 TNBC xenograft; 2 days on/5 days off): significant tumor regression; also recorded: complete tumor regression; Body weight loss (MX-1 TNBC xenograft; 2 days on/5 days off, MX-1 model): no significant body weight loss; Tumor growth MX-1 (MX-1 TNBC xenograft; once weekly): tumor stasis; Body weight changes (MX-1 TNBC xenograft; MX-1 model): minor
CC[C@H](C)[C@@H]([C@@H](CC(=O)N1CCC[C@H]1[C@H](OC)[C@@H](C)C(=O)N[C@H](C)[C@@H](O)c1ccccc1)OC)N(C)C(=O)[C@@H](NC(=O)[C@@H](NC)C(C)C)C(C)C [Compound 9, N-methyl-L-valyl-N-[(3R,4S,5S)-1-{(2S)-2-[(1R,2R)-3-{[(1S,2R)-1-hydroxy-1-phenylpropan-2-yl]amino}-1-methoxy-2-methyl-3-oxopropyl]pyrrolidin-1-yl}-3-methoxy-5-methyl-1-oxoheptan-4-yl]-N-methyl-L-valinamide, reference compound] (H-[NMeV]V[Dil][Dolaproine]-X1) | largely below the lower limit of quantitation | – | – | – | 0.55 | 0.58 | 0.14 | 0.18 | 0.36 | 0.4 | 4.9 | 5.9 | – | – | – | – | – | – | – | – | –
CCc1c2c(nc3ccccc13)-c1cc3c(c(=O)n1C2)COC(=O)[C@]3(O)CC [Compound 7, 7-ethyl camptothecin, reference compound] | – | – | – | – | 19 | 22 | 4.2 | 3.8 | 4.6 | 3.8 | 3.2 | 3.7 | – | – | – | – | – | – | – | – | –
CCCNC(=O)Nc1cccc(S(=O)(=O)Nc2cccc([C@@H](CC(=O)O)NC(=O)Nc3ccc(NC(=O)NCCOCCOCCOCCC(=O)N[C@@H](CC(N)=O)C(=O)N4CCC[C@H]4C(=O)N[C@H](C(=O)NCCCN(C(=O)CO)[C@@H](c4cc(-c5cc(F)ccc5F)cn4Cc4ccccc4)C(C)(C)C)C(C)C)cc3)c2)c1 [Compound 5] | – | – | – | – | – | – | – | – | – | – | – | – | very slow | 1.09 ± 0.49 | 4.88 ± 4.37 | 5.5 ± 2.35 | 0.6 ± 0.515 | highly stable | highly stable | highly stable | –
CNC(=O)[C@@H](N)CCN(C(=O)CO)[C@@H](c1cc(-c2cc(F)ccc2F)cn1Cc1ccccc1)C(C)(C)C [Compound 11, (2S)-2-amino-4-[{(1R)-1-[1-benzyl-4-(2,5-difluorophenyl)-1H-pyrrol-2-yl]-2,2-dimethylpropyl}(glycoloyl)amino]-N-methylbutanamide] | largely below the lower limit of quantitation | 3.48 | 30.3 | 8.7 | 1.4 | 1.2 | 0.53 | 0.31 | 0.97 | 1.8 | 6 | 6 | – | – | – | – | – | – | – | – | –
